In patent US8952024B2, “Herbicidal pyrimidone derivatives” (E I du Pont de Nemours and Company, priority 2009, dated 2015):

Legend:
Assay type in all cases: in vivo
[1] = system: yellow nutsedge (Cyperus esculentus); assay: Test B pre-/postemergence plant response
Source text: (§1) Seeds of plant species selected from blackgrass (Alopecurus myosuroides), downy bromegrass (Bromus tectorum), green foxtail (Setaria viridis), Italian ryegrass (Lolium multiflorum), wheat (Triticum aestivum), wild oat (Avena fatua), deadnettle (henbit deadnettle, Lamium amplexicaule), galium (catchweed bedstraw, Galium aparine), bermudagrass (Cynodon dactylon), Surinam grass (Brachiaria decumbens), cocklebur (Xanthium strumarium), corn (Zea mays), large crabgrass (Digitaria sanguinalis), woolly cupgrass (Eriochloa villosa), giant foxtail (Setaria faberii), goosegrass (Eleusine indica), johnsongrass (Sorghum halepense), kochia (Kochia scoparia), lambsquarters (Chenopodium album), morningglory (Ipomoea coccinea), nightshade (eastern black nightshade, Solanum ptycanthum), yellow nutsedge (Cyperus esculentus), pigweed (Amaranthus retroflexus), ragweed (common ragweed, Ambrosia elatior), Russian thistle (Salsola kali), soybean (Glycine max), sunflower (common oilseed sunflower, Helianthus annuus) and velvetleaf (Abutilon theophrasti) were planted into a blend of loam soil and sand and treated preemergence with test compounds formulated in a non-phytotoxic solvent mixture which included a surfactant.
(§2) At the same time, plants selected from these crop and weed species and also winter barley (Hordeum vulgare), canarygrass (Phalaris minor), chickweed (Stellaria media) and windgrass (Apera spica-venti) were planted in pots containing Redi-Earth® planting medium (Scotts Company, 14111 Scottslawn Road, Marysville, Ohio 43041) comprising spaghnum peat moss, vermiculite, wetting agent and starter nutrients and treated with postemergence applications of some of the test chemicals formulated in the same manner. Plants ranged in height from 2 to 18 cm (1- to 4-leaf stage) for postemergence treatments.
(§3) Treated plants and controls were maintained in a greenhouse for 13 to 15 days, after which time all treated plants were visually evaluated and compared to controls. Plant response ratings, summarized in Table B, are based on a scale of 0 to 100 where 0 is no effect and 100 is complete control. A dash (-) response means no test result.

[2] = system: lambsquarters (Chenopodium album); assay: Test B pre-/postemergence plant response
Source text: as §1, §2, §3

[3] = system: woolly cupgrass (Eriochloa villosa); assay: Test B pre-/postemergence plant response
Source text: as §1, §2, §3

[4] = system: bermudagrass (Cynodon dactylon); assay: Test B pre-/postemergence plant response
Source text: as §1, §2, §3

[5] = system: pigweed (Amaranthus retroflexus); assay: Test B pre-/postemergence plant response
Source text: as §1, §2, §3

[6] = system: wheat (Triticum aestivum); assay: Test B pre-/postemergence plant response
Source text: as §1, §2, §3

[7] = system: Surinam grass (Brachiaria decumbens); assay: Test B pre-/postemergence plant response
Source text: as §1, §2, §3

[8] = system: downy bromegrass (Bromus tectorum); assay: Test B pre-/postemergence plant response
Source text: as §1, §2, §3

rice (Oryza sativa) = assay: Test B flooded paddy test; settings: for Plant response rating, Flood, Rice: 250 g ai/ha, flooded paddy test, visual rating on 0 to 100 scale (0 no effect, 100 complete control) after 13 to 15 days; for Plant response rating, Rice: Flood (flooded paddy test), 13 to 15 days
Procedure, shortened: (§4)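 Flooded-pot test: water raised to 3 cm above soil when treating, compound put in the water, level unchanged thereafter. Plants were at 2 leaves. Readout after 13 to 15 days, visual, relative to controls; 0 signifies no effect and 100 complete control.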

[9] = system: umbrella sedge (Cyperus difformis); assay: Test B flooded paddy test; settings: for Plant response rating, Flood, Sedge, Umbrella: 250 g ai/ha, flooded paddy test, visual rating on 0 to 100 scale (0 no effect, 100 complete control) after 13 to 15 days; for Plant response rating, Sedge, Umbrella: Flood (flooded paddy test), 13 to 15 days
Procedure, shortened: as §4

[10] = system: barnyardgrass (Echinochloa crus-galli); assay: Test B flooded paddy test; settings: for Plant response rating, Flood, Barnyardgrass: 250 g ai/ha, flooded paddy test, visual rating on 0 to 100 scale (0 no effect, 100 complete control) after 13 to 15 days; for Plant response rating, Barnyardgrass: Flood (flooded paddy test), 13 to 15 days
Procedure, shortened: as §4

[11] = system: ducksalad (Heteranthera limosa); assay: Test B flooded paddy test; settings: for Plant response rating, Flood, Ducksalad: 250 g ai/ha, flooded paddy test, visual rating on 0 to 100 scale (0 no effect, 100 complete control) after 13 to 15 days; for Plant response rating, Ducksalad: Flood (flooded paddy test), 13 to 15 days
Procedure, shortened: as §4

[12] = 31 g ai/ha, postemergence, scale 0 to 100, 0 is no effect, 100 is complete control
[13] = Postemergence, 62 g ai/ha, scale 0 (no effect) to 100 (complete control), 13 to 15 days
[14] = Postemergence, 125 g ai/ha, visual rating after 13 to 15 days, scale 0 (no effect) to 100 (complete control)
[15] = Postemergence, 250 g ai/ha, scale 0 to 100 (0 no effect, 100 complete control)
[16] = Preemergence, 31 g ai/ha, scale 0 to 100 (0 no effect, 100 complete control)
[17] = Preemergence, 62 g ai/ha, scale 0 to 100 (0 no effect, 100 complete control)
[18] = Preemergence, 125 g ai/ha, scale 0 to 100, 0 no effect, 100 complete control
[19] = 250 g ai/ha, Preemergence, 0 to 100 scale
[20] = 31 g ai/ha, scale of 0 to 100 where 0 is no effect and 100 is complete control
[21] = 62 g ai/ha, scale of 0 to 100 where 0 is no effect and 100 is complete control
[22] = 125 g ai/ha, scale 0 to 100, 0 is no effect, 100 is complete control

Cn1c(-c2ccccc2)ncc(C(=O)C2=C(O)CCCC2=O)c1=O [Compound 55]
65: Plant response rating, Nutsedge, Yellow [1, 15]
0: Plant response rating, Nutsedge, Yellow [1, 16] | Plant response rating, Cupgrass, Woolly [3, 16] | Plant response rating, Cupgrass, Woolly [3, 17] | Plant response rating, Cupgrass, Woolly [3, 18] | Plant response rating, Wheat [6, 12] | Plant response rating, Wheat [6, 13] | Plant response rating, Wheat [6, 16] | Plant response rating, Wheat [6, 17] | Plant response rating, Wheat [6, 18] | Plant response rating, Surinam Grass [7, 16] | Plant response rating, Surinam Grass [7, 17] | Plant response rating, Surinam Grass [7, 18] | Plant response rating, Bromegrass, Downy [8, 12] | Plant response rating, Bromegrass, Downy [8, 19] | Plant response rating, Bromegrass, Downy [8, 13] | Plant response rating, Bromegrass, Downy [8, 14] | Plant response rating, Bromegrass, Downy [8, 15] | Plant response rating, Bromegrass, Downy [8, 16] | Plant response rating, Bromegrass, Downy [8, 17] | Plant response rating, Bromegrass, Downy [8, 18] | Plant response rating, Rice (rice (Oryza sativa); [20]) | Plant response rating, Sedge, Umbrella [9, 20] | Plant response rating, Barnyardgrass [10, 20] | Plant response rating, Ducksalad [11, 20] | Plant response rating, Ducksalad [11, 21] | Plant response rating, Ducksalad [11, 22]
80: Plant response rating, Lambsquarters [2, 12] | Plant response rating, Lambsquarters [2, 13] | Plant response rating, Bermudagrass [4, 12] | Plant response rating, Bermudagrass [4, 13] | Plant response rating, Pigweed [5, 12]
55: Plant response rating, Nutsedge, Yellow [1, 14] | Plant response rating, Cupgrass, Woolly [3, 19]
50: Plant response rating, Flood, Ducksalad [11]
40: Plant response rating, Sedge, Umbrella [9, 22]
5: Plant response rating, Wheat [6, 14]
100: Plant response rating, Lambsquarters [2, 19] | Plant response rating, Bermudagrass [4, 19] | Plant response rating, Bermudagrass [4, 18]
45: Plant response rating, Nutsedge, Yellow [1, 17] | Plant response rating, Nutsedge, Yellow [1, 18] | Plant response rating, Pigweed [5, 16] | Plant response rating, Surinam Grass [7, 14]
10: Plant response rating, Nutsedge, Yellow [1, 12] | Plant response rating, Nutsedge, Yellow [1, 13] | Plant response rating, Cupgrass, Woolly [3, 12] | Plant response rating, Cupgrass, Woolly [3, 13] | Plant response rating, Wheat [6, 15] | Plant response rating, Surinam Grass [7, 12] | Plant response rating, Rice (rice (Oryza sativa); [21])
95: Plant response rating, Lambsquarters [2, 14] | Plant response rating, Lambsquarters [2, 16] | Plant response rating, Bermudagrass [4, 16] | Plant response rating, Pigweed [5, 15] | Plant response rating, Pigweed [5, 17]
60: Plant response rating, Surinam Grass [7, 15] | Plant response rating, Flood, Sedge, Umbrella [9]
90: Plant response rating, Bermudagrass [4, 15] | Plant response rating, Pigweed [5, 14]
15: Plant response rating, Cupgrass, Woolly [3, 14] | Plant response rating, Surinam Grass [7, 13] | Plant response rating, Rice (rice (Oryza sativa); [22])
85: Plant response rating, Bermudagrass [4, 14] | Plant response rating, Pigweed [5, 13]
20: Plant response rating, Cupgrass, Woolly [3, 15] | Plant response rating, Flood, Barnyardgrass [10] | Plant response rating, Barnyardgrass [10, 21] | Plant response rating, Barnyardgrass [10, 22]
98: Plant response rating, Lambsquarters [2, 15] | Plant response rating, Lambsquarters [2, 17] | Plant response rating, Lambsquarters [2, 18] | Plant response rating, Bermudagrass [4, 17] | Plant response rating, Pigweed [5, 18]
30: Plant response rating, Sedge, Umbrella [9, 21]
25: Plant response rating, Flood, Rice (rice (Oryza sativa))

O=C1CCCC(O)=C1C(=O)c1cnc(-c2ccsc2)n(-c2ccccc2)c1=O [Compound 56]
70: Plant response rating, Nutsedge, Yellow [1, 13] | Plant response rating, Cupgrass, Woolly [3, 19]
98: Plant response rating, Lambsquarters [2, 12] | Plant response rating, Lambsquarters [2, 19] | Plant response rating, Lambsquarters [2, 13] | Plant response rating, Lambsquarters [2, 17] | Plant response rating, Lambsquarters [2, 18] | Plant response rating, Bermudagrass [4, 16] | Plant response rating, Pigweed [5, 12] | Plant response rating, Pigweed [5, 13] | Plant response rating, Pigweed [5, 16] | Plant response rating, Surinam Grass [7, 18]
95: Plant response rating, Lambsquarters [2, 16] | Plant response rating, Surinam Grass [7, 17]
30: Plant response rating, Sedge, Umbrella [9, 20]
50: Plant response rating, Cupgrass, Woolly [3, 18] | Plant response rating, Bromegrass, Downy [8, 14] | Plant response rating, Flood, Ducksalad [11]
85: Plant response rating, Nutsedge, Yellow [1, 18] | Plant response rating, Cupgrass, Woolly [3, 15] | Plant response rating, Bermudagrass [4, 13] | Plant response rating, Surinam Grass [7, 14]
20: Plant response rating, Nutsedge, Yellow [1, 12] | Plant response rating, Nutsedge, Yellow [1, 16] | Plant response rating, Cupgrass, Woolly [3, 17] | Plant response rating, Flood, Rice (rice (Oryza sativa)) | Plant response rating, Barnyardgrass [10, 22] | Plant response rating, Ducksalad [11, 21]
5: Plant response rating, Bromegrass, Downy [8, 19]
0: Plant response rating, Cupgrass, Woolly [3, 16] | Plant response rating, Wheat [6, 12] | Plant response rating, Wheat [6, 13] | Plant response rating, Wheat [6, 14] | Plant response rating, Wheat [6, 15] | Plant response rating, Wheat [6, 16] | Plant response rating, Wheat [6, 17] | Plant response rating, Wheat [6, 18] | Plant response rating, Bromegrass, Downy [8, 16] | Plant response rating, Bromegrass, Downy [8, 17] | Plant response rating, Bromegrass, Downy [8, 18] | Plant response rating, Rice (rice (Oryza sativa); [20]) | Plant response rating, Rice (rice (Oryza sativa); [21]) | Plant response rating, Ducksalad [11, 20]
15: Plant response rating, Cupgrass, Woolly [3, 12] | Plant response rating, Rice (rice (Oryza sativa); [22]) | Plant response rating, Barnyardgrass [10, 21]
100: Plant response rating, Lambsquarters [2, 14] | Plant response rating, Lambsquarters [2, 15] | Plant response rating, Bermudagrass [4, 19] | Plant response rating, Bermudagrass [4, 14] | Plant response rating, Bermudagrass [4, 15] | Plant response rating, Bermudagrass [4, 17] | Plant response rating, Bermudagrass [4, 18] | Plant response rating, Pigweed [5, 14] | Plant response rating, Pigweed [5, 15] | Plant response rating, Pigweed [5, 17] | Plant response rating, Pigweed [5, 18] | Plant response rating, Surinam Grass [7, 15]
80: Plant response rating, Nutsedge, Yellow [1, 17] | Plant response rating, Surinam Grass [7, 13]
65: Plant response rating, Cupgrass, Woolly [3, 14]
60: Plant response rating, Bromegrass, Downy [8, 15] | Plant response rating, Sedge, Umbrella [9, 22]
75: Plant response rating, Nutsedge, Yellow [1, 14] | Plant response rating, Nutsedge, Yellow [1, 15] | Plant response rating, Bermudagrass [4, 12] | Plant response rating, Surinam Grass [7, 12] | Plant response rating, Flood, Sedge, Umbrella [9]
40: Plant response rating, Sedge, Umbrella [9, 21] | Plant response rating, Ducksalad [11, 22]
45: Plant response rating, Cupgrass, Woolly [3, 13] | Plant response rating, Bromegrass, Downy [8, 13]
35: Plant response rating, Bromegrass, Downy [8, 12] | Plant response rating, Flood, Barnyardgrass [10]
10: Plant response rating, Barnyardgrass [10, 20]
55: Plant response rating, Surinam Grass [7, 16]
